The values that follow come from publication PMC2584039 (Molecular Pain, 2008).

The subject of one test is TRPA1. Details: method as in Petrus et al. (2007). To be noted: mouse; ref Petrus et al. (2007); cited from earlier work.
A further test deals with T1, human TRPA1 (Homo sapiens, UniProt O75762).
T1 construct: Full length human TRPA1 cDNA was purchased from Origene Technologies; host or cells: HEK-293 (Invitrogen Flp-In system, hygromycin B selection)
Description: cell-based.

The test system of test [1] is spinal nerve ligation induced mechanical hypersensitivity. The conditions noted are these: rat, in vivo.

T1 sequence (O75762 whole entry): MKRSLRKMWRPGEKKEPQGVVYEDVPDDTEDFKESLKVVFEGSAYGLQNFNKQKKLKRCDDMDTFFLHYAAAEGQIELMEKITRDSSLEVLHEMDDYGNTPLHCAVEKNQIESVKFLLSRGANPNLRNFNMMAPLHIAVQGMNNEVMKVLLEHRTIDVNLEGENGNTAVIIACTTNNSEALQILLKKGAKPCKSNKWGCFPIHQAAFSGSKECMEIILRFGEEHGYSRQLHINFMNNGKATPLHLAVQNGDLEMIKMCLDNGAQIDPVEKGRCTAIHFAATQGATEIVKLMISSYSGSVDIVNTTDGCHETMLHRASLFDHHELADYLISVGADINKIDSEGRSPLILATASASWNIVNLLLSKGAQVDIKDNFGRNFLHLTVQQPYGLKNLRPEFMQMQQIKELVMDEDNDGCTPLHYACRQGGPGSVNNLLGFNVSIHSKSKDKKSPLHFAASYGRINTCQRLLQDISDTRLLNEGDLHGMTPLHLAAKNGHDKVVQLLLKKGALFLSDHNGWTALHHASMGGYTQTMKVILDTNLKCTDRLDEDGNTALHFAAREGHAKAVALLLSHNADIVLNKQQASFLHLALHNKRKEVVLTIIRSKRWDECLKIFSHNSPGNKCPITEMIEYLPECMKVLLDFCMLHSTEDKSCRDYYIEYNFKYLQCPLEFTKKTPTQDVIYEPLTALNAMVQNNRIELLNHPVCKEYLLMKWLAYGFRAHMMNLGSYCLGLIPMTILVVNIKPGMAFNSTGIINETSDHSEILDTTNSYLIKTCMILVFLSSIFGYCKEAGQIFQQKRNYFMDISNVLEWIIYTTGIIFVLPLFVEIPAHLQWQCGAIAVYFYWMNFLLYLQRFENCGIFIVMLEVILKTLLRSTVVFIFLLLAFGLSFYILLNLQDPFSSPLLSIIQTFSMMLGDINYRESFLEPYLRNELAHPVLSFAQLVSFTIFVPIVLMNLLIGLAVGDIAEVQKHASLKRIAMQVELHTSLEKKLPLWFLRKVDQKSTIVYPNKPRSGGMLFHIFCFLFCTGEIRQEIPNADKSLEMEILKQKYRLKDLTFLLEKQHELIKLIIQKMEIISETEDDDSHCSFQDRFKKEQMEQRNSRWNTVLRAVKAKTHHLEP

For `CC(=C\c1ccc(Cl)cc1)/C(C)=N/O` [AP18], the IC50 in the test with TRPA1 was 4.5 µM.
In turn, `O=C/C=C/c1ccccc1` [cinnamaldehyde] registered an EC50 on human TRPA1 of 15.9 µM.
Consider `CC(C)C[C@H](CN)CC(=O)O` [pregabalin], for which, in test [1], the “effect on SNL mechanical hypersensitivity vs vehicle” value is “significant attenuation” and the “percent reversal of SNL-induced mechanical hypersensitivity” value stood at 56%.
